Laboratory results taken from patent US10456344B2, “Hair composition” (Conopco, Inc., priority 2014, dated 2019).

How the values were obtained:
[1] = test system: antioxidant response element (ARE); experiment: HaCaT cell with antioxidant response element (ARE) reporter gene (luciferase) assay; format: cell-based, human; details: n = 3
Experimental: HaCaT (immortal human keratinocyte) cells (P42) were stored in liquid nitrogen and revived in DMEM containing 10% FBS. The cells were sub-cultured and cryostocks made in 10% DMEM containing 10% DMSO from the first two passages.
To generate a stable cell line, the optimal antibiotic concentration was determined for selecting stable cell colonies. A kill curve was performed using untransfected HaCaT cells to evaluate their hygromycin B sensitivity (as the ARE-luciferase construct to be used for transfection contains the gene for hygromycin B resistance). HaCaT cells were plated in a 24-well tissue culture plate at a cell density of ˜80,000 cells per well. 24 hours later the cells were treated with different concentrations of Hygromycin B (ranging from 100 μg/ml to 800 μg/ml for seven days).
pGL4.37 (luc2P/ARE/Hygro) vector (Promega Cat. No. #E3641) transformed into DH5α competent cells (Invitrogen Cat. No. #18263-012). These were then plated on to an LB-ampicillin plate and kept overnight at 37° C. in an incubator.
The next day, single colonies were picked and inoculated in 5 ml LB Amp medium and kept at 37° C. for 8 hours in a shaker incubator at 250 rpm. The starter culture was then inoculated at 1:100 in 100 ml LB Amp medium. 24 hours later, the culture was harvested and transfection grade plasmid prepared using Sigma's Plasmid Midiprep Kit (Cat. No. #PLD35-1KT).
HaCaT cells were plated in 6-well tissue culture plate at a cell density of 500,000 cells per well. After 24 hours, the cells were transfected with 2 μg of endotoxin-free transfection grade pGL4.37 [luc2P/ARE/Hygro] vector in duplicates using Lipofectamine 2000 Reagent (Invitrogen) as per manufacturer's protocol. After transfection, HaCaT cells were allowed to grow and to express the protein for Hygromycin B resistance under non-selective conditions for 24 hours. One day post transfection cells were treated with Hygromycin B at a concentration of 400 μg/ml to initiate the antibiotic selection pressure. For the selection of stably expressing cells, HaCaT cells were grown in 10% DMEM medium containing 400 μg/ml of Hygromycin B. Under Hygromycin B selective conditions, resistant cells will outgrow non-resistant cells thereby resulting in a polyclonal population of stably-expressing cells. Stably expressing HaCaT cells were fed every 2-3 days with 400 μg/ml Hygromycin B selection medium. After 3 weeks of selection with 400 μg/ml of Hygromycin B medium stable pools were observed on the plate. Individual clones were picked using cloning rings and transferred to 96-well plate and expanded up to T25 cm^2 flask. Out of a dozen individual clones, clone 7 was chosen and validated for expression of luciferase upon treatment with D,L-sulforaphane.
HaCaT_ARE_luc2P_Clone_7 cells were seeded in a 96 well plate at a cell density of ˜7.5×10^3 cells per well. 24 hours later D, L-sulforaphane was added at increasing concentrations (0 μM, 0.2 μM, 0.4 μM, 0.6 μM, 0.8 μM and 1 μM). A standard curve for the luciferase assay was generated for relative light units (RLU) for HaCaT_ARE_Clone_7 cells treated with increasing concentrations of D,L-sulforaphane.
HaCaT_ARE_luc2P_Clone_7 cells were seeded in 96 well plates at a cell density of ˜7,500 cells per well. All test compounds were added to the cells at a final dilution of 1:1000 and the luciferase assay performed.
The following combinations of test compounds were evaluated in the assay: • (a) granilin, an NRF2 agonist, and 22(R)-hydroxycholesterol, a liver X receptor α/β agonist; • (b) granilin and 3-[3-[[[2-chloro-3-(trifluoromethyl)phenyl]methyl](2,2-diphenylethyl) amino]propoxy]benzeneacetic acid hydrochloride (also known as GW 3965 hydrochloride and available from Tocris), a liver X receptor α/β agonist; and • (c) granilin and stigmasterol, a liver X receptor α/β agonist. Results

[2] = test system: hemeoxygenase-1 (HO-1) protein; experiment: HO-1 ELISA of lysates of treated HaCaT cells; format: cell-based, human; details: 24 hours, n = 3
Experimental: HaCaT (immortal human keratinocyte) cells (P42) were stored in liquid nitrogen and revived in DMEM containing 10% FBS. The cells were sub-cultured and cryostocks made in 10% DMEM containing 10% DMSO from the first two passages. Cells were routinely plated out in 6-well tissue culture dishes, at a seeding density of ˜5000 cells/cm2 in 2 ml complete medium/well for 24 hours, and incubated at 37° C. in 5% CO2. Test solutions were prepared in ethanol or DMSO and added directly to the cells and treated for 24 hours. The cells were then pelleted. All cell pellets were lysed on ice for 30 minutes in 1 ml cell lysis buffer per 2.5×10^6 cells. The lysis buffer contained 1% NP-40, 0.1% sodium deoxycholate, 0.1% SDS, 6 mM sodium chloride and 0.05 M Tris at pH 7.6. […] Sigma P8340) was added prior to use at a level of 10 μl per ml of lysis buffer. The clarified cell lysate was frozen at −80° C. until needed. The total protein concentration of each cell lysate was measured using the Pierce BCA protein assay kit. […] The reagent solution was prepared according to the kit instructions from 50 parts reagent A and 1 part reagent B. 200 μl of the final reagent was added to each well of the microtitre plate. The plate was mixed, covered and incubated at 37° C. for 30 minutes and absorbance read at 562 nm. A protein standard curve was constructed and used to determine the protein concentration of each cell lysate. HO-1 ELISA (R & D Systems) The hemeoxygenase-1 (HO-1) protein concentration of each cell lysate was assayed using the DuoSet Human Total HO-1/HMOX1 assay (R&D Systems DYC3776) according to the manufacturer's instructions. […] The HO-1 capture antibody was diluted to a concentration of 8 μg/ml in PBS and was bound to the microtitre plate (Greiner Bio-One) overnight at room temperature. The unbound antibody was then removed by washing 3 times with wash buffer (0.05% Tween 20 in PBS) on an automatic plate washer. […] The plate was washed as before. 100 μl of 1/200 diluted streptavidin horseradish peroxidase (HRP) was added to each well and incubated in the dark for 20 minutes at room temperature. The plate was washed as before and then 100 μl of substrate solution (R&D Systems DY999, 1:1 mixture of Colour Reagent A and Colour Reagent B) was added to each well and incubated, in the dark at room temperature, until colour developed (approx 20 minutes). 50 μl of stop solution (2M H2SO4) was applied to each well and the plate read on a microplate reader (Dynex MRX) at 450 nm with wavelength correction set at 540 nm. A standard curve was plotted of mean OD versus HO-1 concentration and the line of best fit calculated by regression analysis. The unknown concentration of HO-1 protein in all the samples was calculated from this. The results were normalised using the total protein data and expressed as ng HO-1 per μg protein. The test compounds were sulforaphane, an NRF2 agonist, and 22(R)-hydroxycholesterol, a liver X receptor α/β agonist, and mixtures thereof.

[3] = test system: NADP(H): quinone oxidoreductase (NQO-1); experiment: NQO-1 gene expression assay of hair follicle cells (real time PCR); format: cell-based, human; details: 24 hour treatment, n = 3
Description: Temporal or occipital human scalp skin was obtained from subjects undergoing face-lift or hair transplant surgery with informed consent and ethics approval. Anagen VI hair follicles were isolated and maintained according to the method described in Philpott et al (J. Cell Sci 97, 463-471 (1990)). Dhurat et al (Int J Trichology, 2(2), 96-100 (July-December 2010)) describe that anagen is conventionally divided into six stages, Anagen I-V (proanagen), when the hair shaft grows within the hair follicle, and Anagen VI ([…]), when the tip of the hair shaft emerges from the hair follicle. Hair follicles were stabilised in RNAlater (for PCR). Five individual Anagen VI hair follicles were used for each culture condition/patient. […] RNA was extracted using the Qiagen RNeasy Microkit (maximum 5 mg tissue per extraction). […] cDNA was diluted 1:10 in RNase free water. […] Plates were run on an Applied Biosystems StepOnePlusTM Real Time PCR machine. Fast cycling conditions were used, utilising a 2 minute polymerase activation step at 95° C., followed by 45 cycles of denaturing at 95° C. for 1 second, and annealing/extension at 60° C. for 20 seconds. […] Data was analysed by the ΔΔCt methodology The test compounds were sulforaphane, an NRF2 agonist, and 22(R)-hydroxycholesterol, a liver X receptor α/β agonist, and mixtures thereof.

[4] = test system: HO-1; details: hair follicles treated with sulforaphane; cited from earlier work

Q: Which results are given for CC(C)CC[C@@H](O)[C@@H](C)[C@H]1CC[C@H]2[C@@H]3CC=C4C[C@@H](O)CC[C@]4(C)[C@H]3CC[C@]12C [22(R)-hydroxycholesterol]?
A: RLU ([1]; 1 μM single compound): 1.17 ± 0.03 RLU; RLU ([1]; 10 μM single compound): 0.67 ± 0.01 RLU; HO-1 protein (ng HO-1 per μg protein) ([2]; 1 μM single compound): 1.486 ± 0.387 ng HO-1 per μg protein; HO-1 protein (ng HO-1 per μg protein) ([2]; 10 μM single compound): 3.174 ± 0.119 ng HO-1 per μg protein; NQO-1 Fold change compared to 18S ([3]; 5 μM): 1.04 ± 0.05 Fold change

Q: What does the source list for Cl.O=C(O)Cc1cccc(OCCCN(Cc2cccc(C(F)(F)F)c2Cl)CC(c2ccccc2)c2ccccc2)c1 [GW 3965 hydrochloride, 3-[3-[[[2-chloro-3-(trifluoromethyl)phenyl]methyl](2,2-diphenylethyl)amino]propoxy]benzeneacetic acid hydrochloride]?
A: RLU ([1]; 1 μM single compound): 1.02 ± 0.02 RLU; RLU ([1]; 10 μM single compound): 0.63 ± 0.01 RLU

Q: For C=C1C(=O)O[C@@H]2C[C@@]3(C)[C@@H](O)C[C@@H](O)C(=C)[C@@H]3C[C@H]12 [granilin], which RLU ([1]; 1 μM single compound) is on record?
A: 3.77 ± 0.31 RLU

Q: What about the RLU ([1]; 5 μM single compound) of the same compound?
A: 15.04 ± 0.18 RLU

Q: With CC[C@H](/C=C/[C@@H](C)[C@H]1CC[C@H]2[C@@H]3CC=C4C[C@@H](O)CC[C@]4(C)[C@H]3CC[C@]12C)C(C)C [stigmasterol] as the compound, how does the RLU ([1]; 1 μM single compound) read?
A: 0.78 ± 0.02 RLU

Q: And the RLU ([1]; 10 μM single compound)?
A: 0.69 ± 0.00 RLU

Q: With C[S+]([O-])CCCCN=C=S (stereo not shown) [sulforaphane] as the compound, how does the “HO-1 protein (ng HO-1 per μg protein)” value ([2]; 0.01 μM single compound) read?
A: 1.602 ± 0.248 ng HO-1 per μg protein

Q: And the “HO-1 protein (ng HO-1 per μg protein)” value ([2]; 0.05 μM single compound)?
A: 1.600 ± 0.385 ng HO-1 per μg protein

Q: And the “HO-1 protein (ng HO-1 per μg protein)” value ([2]; 1 μM single compound)?
A: 1.910 ± 0.418 ng HO-1 per μg protein

Q: And the “NQO-1 Fold change compared to 18S” value ([3]; 10 μM)?
A: 5.44 ± 0.50 Fold change

Q: And the “HO-1 in the mesenchymal connective tissue sheath” value [4]?
A: up-regulation of HO-1
